In patent US10226514B2, “Methods and compositions for reducing blood glucose levels” (The Children's Medical Center Corporation, priority 2011, dated 2019):
Entries after “also recorded” stand apart in the source; their conditions may differ.

Experiments:
XBP1s [1] = experiment: XBP1s phosphorylation at Thr48 and Ser61 in cells (MS/MS, phospho-specific antibodies); assay type: cell-based, mouse; conditions: anisomycin 25 ng/ml
Experimental: MEFs were infected with flag-tagged XBP1s expressing adenovirus and treated with anisomycin (25 ng/ml) for 2 h. Cells were washed with ice-cold PBS and lysed with RIPA buffer (50 mM Tris-HCl, pH 7.5; 2 mM EGTA; 0.3% CHAPS; 100 mM NaF; 10 mM Na4P2O7; 1 mM Na3VO4; 10 μg/ml Leupeptin; 10 μg/ml Aprotinin; 2 mM PMSF and 20 nM Okadaic acid). After overnight incubation with anti-flag antibody, Protein A sepharose beads were added for additional 2 h at 4° C. Immunoprecipates were washed three times with RIPA buffer containing 150 mM NaCl and boiled for 5 min in 2× Laemmli buffer for elution of immunoprecipitated XBP1s. Samples were resolved in SDS-PAGE and stained with Coomassie blue (Bio-Rad). Protein from Coomassie-stained gel bands was digested with trypsin and the resulting peptide mixtures were subjected to microcapillary liquid chomatography tandem mass spectrometry (LC-MS/MS). MS/MS spectra were assigned by searching them with the XBP1s protein sequence using the SEQUEST algorithm.
Similar results were obtained from XBP1s^Ser61 phosphorylation.

XBP1s [2] = experiment: XBP1s protein levels in Ad-XBP1s-infected MEFs (western blot); assay type: cell-based, mouse
Experimental: MEF cells were from American Type Tissue Collection (ATCC). These cells were grown in Dulbecco's Modified Eagel Medium (DMEM) supplemented with 10% fetal bovine serum (FBS), 10 U/ml penicillin and 1 μg/ml streptomycin at 37° C. and 5% CO2. Fao cells were maintained in RPMI 1640 medium (Invitrogen) supplemented with 10% fetal bovine serum (FBS), 10 U/ml penicillin and 1 μg/ml streptomycin.
Adenovirus expressing XBP1s T48A, XBP1s S61A, XBP1s T48A/S61A and MKK6Glu were produced with ViraPower Adenoviral Expression System (Invitrogen) according to manufacturer's instruction. Briefly, pAD-XBP1s T48A, pAD-XBP1s S61A, pAd-XBP1s T48A/S61A and pAd-MKK6Glu were linearized by restriction endonuclease digestion with PacI and transfected to 293A cells by Lipofectamine. The media was changed with fresh media every other day until the cytopathic effect was observed. When cytopathic effect reached to 80%, cells were collected by centrifugation. The pellet was resuspended in PBS and subjected to freezing and thawing cycles at −80° C. and 37° C. for 4 times. The supernatant containing the virus was prepared by centrifugation at 4,000 rpm for 20 min at room temperature. Ad-XBP s and Ad-Cre were generated as described previously (Ozcan, L., et al. (2009) Cell metabolism 9:35-51). For infection, cells were incubated with adenovirus in reduced volume of medium containing 1% FBS and antibiotics. Cells were gently rocked every 15 min for 1 h to increase efficiency of infection, and then fresh medium were added and cells were incubated for additional 15 h or 23 h.
Cells were lysed in lysis buffer (25 mM Tris-HCl, pH 7.4; 10 mM NaF; 10 mM Na4P207; 2 mM Na3VO4; 1 mM EGTA; 1 mM EDTA; 1% NP-40; 10 μg/ml Leupeptin; 10 μg/ml Aprotinin; 1 mM PMSF and 20 nM Okadaic acid). After 20 min-rotation at 4° C., cell lysates were centrifuged at 13,200 rpm for 20 min at 4° C. Supernatants were collected and protein concentration was quantified by using Protein Assay Kit (Bio-Rad). The concentrations of protein were normalized with lysis buffer to have equivalent amounts of protein and volume. Protein was denatured by boiling at 100° C. for 5 min in Laemmli buffer. The lysates were cooled to room temperature before loading for western blot analysis.
Western blot analysis was performed as previously described (Ozcan, L., et al. (2009) Cell metabolism 9:35-51). Samples from cell lysates or tissue lysates were resolved by SDS-PAGE and then transferred to polyvinylidene fluoride (PVDF) membrane. After 1 h blocking at room temperature using 10% blocking reagent (Roche), membrane was incubated overnight with primary antibody in Tris-buffered saline solution/Tween (TBST) containing 10% blocking reagent at 4° C. After the incubation, membrane was washed three times in TBST and incubated with secondary antibody for 1 h at room temperature. After three-time washing in TBST, membrane was developed using a chemiluminescence assay system (Roche) and exposed to Kodak films. Relative protein levels were quantified by Image J program.

## COc1ccc(C[C@H]2NC[C@H](O)[C@H]2OC(C)=O)cc1 [anisomycin]
XBP1s [1]
  phosphorylation of XBP1s at Ser61: increases phosphorylation of XBP1s at Ser61; also recorded: strongly induced phosphorylation of XBP1s at Ser61
  phosphorylation of XBP1s at Thr48: greatly increased phosphorylation of the Thr48 residue
XBP1s [2]; Ad-XBP1s-infected MEFs, increasing doses, two hours
  XBP1s protein levels: robust increase in XBP1s protein levels
XBP1s [2]; Ad-XBP1s-infected MK2−/− cells vs control cells
  XBP1s protein levels: dramatically reduced
XBP1s [2]; Ad-XBP1s-infected MKK3,6−/− cells
  XBP1s levels: no increase in XBP1s levels
XBP1s [2]; Ad-XBP1s-infected p38α−/− cells
  XBP1s levels: lacked the ability to upregulate XBP1s levels
XBP1s [2]; JNK1,2−/− cells
  XBP1s protein levels: significant increase in XBP is protein
XBP1s [2]; MKK4,7−/− cells
  XBP1s levels: dramatically increased XBP1s levels
XBP1s [2]; up to 25 ng/ml anisomycin
  XBP1s proteins in Ad-LacZ-infected control cells: No upregulation of XBP1s proteins
